Experimental data reported in PMC5557808 (Nature Communications, 2017).
Blank lines part the entries; values can stand above or below the compound they belong to. Where a SMILES comes first, the peptide text is derived from it. The star is where a group is joined. X1 = CC[N+](CC)(CC(=O)Nc1c(C)cccc1C)Cc1cccc(C(=O)*)c1

Assays:
[1] = tested on: MMP-8, then leucine aminopeptidase (AP); experiment: MMP-8 for 22 h, followed by exposure to AP in AP buffer; conditions: porcine kidney (AP), 37 °C, up to 22 h MMP + 30 minutes AP
[2] = biological target: T1, Leucine aminopeptidase (AP) (Sus scrofa, UniProt P15145); experiment: Aminopeptidase (AP) incubation; assay type: biochemical, porcine
T1 construct: Leucine aminopeptidase (AP; Mw = 280 kDa) from porcine kidney; purchased Sigma-Aldrich Chemie, Schnelldorf, Germany; host or cells: porcine kidney (tissue-derived)
T1 sequence (P15145 1-963): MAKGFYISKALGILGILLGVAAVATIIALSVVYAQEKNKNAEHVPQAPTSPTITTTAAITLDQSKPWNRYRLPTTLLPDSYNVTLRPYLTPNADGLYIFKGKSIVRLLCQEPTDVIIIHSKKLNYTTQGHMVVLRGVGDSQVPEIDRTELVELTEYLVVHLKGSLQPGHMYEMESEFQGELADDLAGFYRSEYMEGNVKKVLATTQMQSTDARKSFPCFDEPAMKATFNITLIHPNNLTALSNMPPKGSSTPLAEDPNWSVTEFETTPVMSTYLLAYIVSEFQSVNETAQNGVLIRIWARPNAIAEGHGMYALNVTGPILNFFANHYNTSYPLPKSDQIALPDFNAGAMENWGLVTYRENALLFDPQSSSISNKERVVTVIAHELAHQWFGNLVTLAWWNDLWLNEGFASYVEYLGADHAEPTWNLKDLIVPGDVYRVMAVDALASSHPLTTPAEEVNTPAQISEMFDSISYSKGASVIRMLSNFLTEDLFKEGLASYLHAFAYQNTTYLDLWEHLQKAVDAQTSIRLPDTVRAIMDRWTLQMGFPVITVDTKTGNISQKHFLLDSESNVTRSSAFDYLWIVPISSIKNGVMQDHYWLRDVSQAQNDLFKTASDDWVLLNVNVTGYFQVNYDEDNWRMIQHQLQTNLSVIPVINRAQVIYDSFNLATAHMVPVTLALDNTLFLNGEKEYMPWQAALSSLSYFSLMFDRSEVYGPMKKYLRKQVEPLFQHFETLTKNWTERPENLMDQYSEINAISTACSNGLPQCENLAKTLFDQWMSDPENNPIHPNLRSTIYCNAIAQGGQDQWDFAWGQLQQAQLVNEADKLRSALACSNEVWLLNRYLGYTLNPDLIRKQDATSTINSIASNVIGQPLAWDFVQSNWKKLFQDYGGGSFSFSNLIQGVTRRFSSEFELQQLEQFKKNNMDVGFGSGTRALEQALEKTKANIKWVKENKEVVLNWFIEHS
Procedure: Leucine aminopeptidase (AP; Mw = 280 kDa) from porcine kidney dissolved in AP buffer (50 mM Tris-HCl, 1 mM CaCl2, and 150 mM NaCl at pH 7.0) was used. L-leucine-p-nitroanilide (0.125 mg/mL) was used as control substrate. For AP digestion, 1 mg of purified lyophilized peptide was diluted in 2 mL AP buffer resulting in a final concentration of 0.5 mg/mL substrate. To evaluate the impact of AP concentration on peptide cleavage, AP was added at concentrations of 0 (negative control), 0.87, 8.7, 39, and 78 µg/mL and the samples were incubated at 37 °C for 1 h. For analysis of the AP incubation time, an AP concentration of 0.87 µg/mL was used and analyzed after 10, 20 min and 1, 2, 3, and 6 h. To stop the enzyme activity, samples were kept at 95 °C for 15 min. Afterwards, HPLC analyses were performed (as described in the Supplementary Information) to analyze the relative decrease of the main peak as compared to the negative control. Further details are given in the Supplementary Methods.
MMP -9) in a concentration of 0.4 ng/µL (50 µL) were mixed with MMP -8 buffer (37 µL), detection enz yme (5 µL) and substrate (8µL; all fro m Q uic kZ yme® ). The acti vi t y was meas ur ed for 12 hours in inter vals of 10 minutes. […]
Aminopeptidase (AP) incubation
Leucine A minopeptidase (AP; M w = 280 kD a) from porcine kidney dissolved in AP buffer (50 mM Tris-HCl, 1 mM CaCl2 and 150 mM NaCl at pH 7.0) was used. L-leu cin e-p-nitroan ilide (0.125mg/ mL) was used as control substr at e. […] Fo r anal ysis of the impact of AP incubation time, the identical conditions were used (AP concentration of 0.87 µg / mL (and analyzed after 10, 20 minutes and 1, 2, 3 and 6 hours ). To stop the enzymatic activit y, sa mp les wer e kept at 95 °C for 15 minutes. A fterwards, H PLC analys es were p erformed (as descr ibed) to an al yze th e relative d ecr eas e of the ma i n pea k as co mp ared to the negative control (see […]
V(B)/(V(A)+V(B)) = 5 % to 90 % over 10 min, V(B)/(V(A)+V(B)) = 90 % for 5 min, V(B)/(V(A)+V(B)) = 90 % to 5 % over 3 min. […] UV detection was measured at 254 nm. […]

MMP-8 [3] = experiment: MMP-8; conditions: human, up to 12 h
MMP-8 [4] = experiment: MMP-8 in MMP-8 buffer; conditions: human, 37 °C, up to 22 h
MMP-8 [5] = experiment: MMP-8 buffer (200 mM NaCl, 50 mM Tris-HCl, 5 mM CaCl2, 1 µM ZnCl2, 0.05% Brij 35 at pH 6.8–7.0); conditions: human, 37 °C, up to 6 hours
MMP-8 [6] = biological target: T2, MMP-8 (Homo sapiens, UniProt P22894); experiment: MMP-8 cleavage of soluble PCL conjugates (HPLC decrease of main peak); assay type: biochemical; conditions: up to 12 h; control PCLs; MMP-8 buffer pH 6.8-7.0, 37 °C
T2 construct: purchased EMD Millipore Corporation (Billerica, MA)
Procedure: Pro-MMPs (e.g., MMP-8, MMP-1, or MMP-9; used at 0.1 mg/mL and >100.0 mU/mg based on the manufacturer’s information) were activated with p-aminophenylmercuric acetate (APMA) (8). For that, a 10 mM stock solution of APMA was freshly prepared in 0.1 M NaOH and a 10:1 (v/v) ratio of the respective proenzyme and the APMA solution (MMP:APMA) was incubated for 3 h at 37 °C. The activity was confirmed using the MMP-8 detection kit (QuickZyme Biosciences, Leiden, the Netherlands). A stock solution (90 µg/mL) of the activated MMP was prepared (used for cleavage studies on the PCL or the fully assembled microparticle-PCL-tastant setup (sensor), in MMP-8 buffer (200 mM NaCl, 50 mM Tris-HCl, 5 mM CaCl2, 1 µM ZnCl2, 0.05% Brij 35 at pH 6.8–7.0). All MMP experiments are described in detail in the Supplementary Methods. […]
in water ( v/v)) and eluent B (0.1 % TFA in 2:3 water-acetonitrile (v/v)) and a gradient from 33 to 80% elu ent B within 30 minutes. UV absorption was r ead at λ = 280 nm or 220 nm. After freezing the samples at -80 °C, fr eeze- drying was performed on a Christ Alpha 1 -4 de vi ce (Martin Christ Gefriertrocknungs anlagen, Osterode am Harz, G e r ma n y) at a desublimers ’ te mperature of - 60 ° C, pressure of 1.030 mbar and processing temperature of 19 °C.
Pro-MMPs (e. g. MMP -8, MMP -1 or MMP-9; adapted to 0.1 mg/mL and > 100.0 mU/mg based on manufacturer information and when appropriate) were activated with APMA 8. For that, a 10 mM stock solution of APMA in 0.1 M NaOH was freshly prepared and a 10:1 (v/v) ratio of the r especti ve proenzyme and APMA solution (MMP:APMA) was incubated for 3 h at 37 °C. The activity was conf ir med using the MMP-8 detection kit (Q uic kZ ym e® Biosciences, Leiden, Netherlands). A stock solution (90 µg/mL) of the activated MMP was prepared (used for cleavage studies on the pr ot eas e-cleavable linker (PCL; e.g. Figure 2) or the fully assemb led microparticle -PCL- t ast ant setup (sensor; e.g. Figure 3) , in MMP -8 buffer (200 mM NaCl, 50 mM Tris-H Cl, 5 mM C aC l2, 1 µM ZnCl2, 0.05 % Brij35 at pH 6.8- 7.0). A ll MMP -8 exp eriments wer e performed as follo ws. 25 µg of the sensor ( see chap ter : Peptide-coupling to beads (Sensor)) in 100 µL MMP-buffer or 1 mg of FP LC -purified and lyophilized PCL as described dissolved 2 mL M MP -buffer resulting in a final concentration of 0.5 mg/ mL substrate was used. […]
Figure 2A , 3, 4B ). […]
(sensor) in co mpar ison to negative controls (the negative controls for the PCL an d sensor exper i men ts were b y incubation without MMP under otherwise identical conditions). The relative d ecreas e of the PCL’s ma in peak was char act er ized by HPLC (PCL) or of the sensor’s fluorescence b y FACS (sensor) in comparison to control. […]

T2 sequence (P22894 101-467): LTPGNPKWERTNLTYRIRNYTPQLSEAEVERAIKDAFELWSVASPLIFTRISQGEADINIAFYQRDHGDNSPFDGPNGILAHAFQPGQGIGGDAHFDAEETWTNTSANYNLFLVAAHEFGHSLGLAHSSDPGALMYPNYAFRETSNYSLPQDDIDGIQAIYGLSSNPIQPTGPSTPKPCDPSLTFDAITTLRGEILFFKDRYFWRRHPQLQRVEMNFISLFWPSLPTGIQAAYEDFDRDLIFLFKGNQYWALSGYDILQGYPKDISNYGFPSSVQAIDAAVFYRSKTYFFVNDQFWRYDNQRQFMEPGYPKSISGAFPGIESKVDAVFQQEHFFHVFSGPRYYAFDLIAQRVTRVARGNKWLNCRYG

Compound: De-GPQG
not cleaved [1]: no difference after additional AP incubation for 30 minutes

cleavage of the peptide denatonium fragment by aminopeptidase ([2]; 870 ng/mL AP, within 250 min, 0.5 mg/mL substrate, AP buffer pH 7.0, 37 °C, HPLC, n = 5): 80%
Compound: CC[C@H](C)[C@H](N)C(=O)N[C@@H](C)C(=O)NCC(=O)N[C@@H](CCC(N)=O)C(=O)N[C@@H](CCCCNC(=O)c1cccc(C[N+](CC)(CC)CC(=O)Nc2c(C)cccc2C)c1)C(N)=O [ID #5a] (H-IAGQK(X1)-NH2)

effect of additional AP incubation after complete MMP-8 cleavage ([2]; AP 3.1 nM (0.87 µg/mL), 30 min, 37 °C, after 22 h with 1800 ng/mL MMP-8, LC-MS): emerging peaks
Compound: A( N3)-GPQGIA GQ-K-De [ID #5, second-generation PCL denatonium conjugate]

not cleaved (MMP-8 [3]): not cleaved by MMP-8 up to 12 h
Compound: Cf-GPLGI AGQ-A( N3)-Q

cleaved bond (MMP-8 [4]): G-I
fragment found [1]: denatonium coupled lysin
cleaved bond (MMP-8 [5]): G-I
Compound: A( N3)-GPQGIA GQ-K-De

cleaved bond (MMP-8 [5]): G-I
Compound: Cf-GP QGIA GQ-A( N3)-Q

cleavage by MMP-8 (MMP-8 [6]): not cleaved
Compound: Cf-GPQGYAGQ-A( N3)-Q [ID #4, control PCL, exchange I5Y]

cleavage by MMP-8 (MMP-8 [6]): not cleaved
Compound: Cf-GPLGI AGQ-A( N3)-Q [ID #3, control PCL, exchange Q3L]

not cleaved (MMP-8 [3]): not cleaved by MMP-8 up to 12 h
Compound: Cf-GPQGYAGQ-A( N3)-Q
